The values that follow come from publication PMC5707064, “Proteoglycan-targeting applied to hypoxia-activated prodrug therapy in chondrosarcoma: first proof-of-concept” (Oncotarget, 2017).

Like-named read-outs stand apart in the source and are kept apart here.

For data set [1], the system named is aggrecan from bovine articular cartilage. The experiment in a line: Surface plasmon resonance (SPR) binding to immobilized aggrecan. The following applies: for Binding to aggrecan (sensorgrams): analytes injected at 0.0625-1 mM, 600 seconds; for Kd: steady-state affinity analysis, ligand: immobilized aggrecan, triplicate, read-out: Dissociation constant (KD). How it is done: SPR assay was carried out on a Biacore T200 instrument (GE Healthcare) with a CM4 sensor chip (GE Healthcare). To immobilize aggrecan from bovine articular cartilage (Sigma-Aldrich), the sensor chip was first activated using a 1:1 mixture of 0.2 M 1-ethyl-3-(3-dimethylaminopropyl)carbodiimide hydrochloride and 0.5 M N-hydroxysuccinimide (amine coupling kit, GE Healthcare) at a flow rate of 5 μL/min for 10 minutes. Aggrecan was then coated on the sensor chip at 400 μg/mL in running buffer HBS-P^+ 1X (0.01 M HEPES, 0.15 M NaCl, 0.05% v/v surfactant p20, pH 7.4) with 6 mM hexadecyltrimethylammoniumbromide (CTAB) at 5 μL/min to a level of ~500 response units. Unoccupied binding sites were blocked using 1 M ethanolamine (pH 8.5) (Amine coupling kit, GE Healthcare) at 5 μL/min during 10 minutes. The studied molecules (analytes) were diluted in running buffer HBS-P^+ 1X before application to the sensor chip at 30 μL/min. Regeneration of the sensor chips was achieved using 2 M NaCl solution during 150 seconds. Dissociation constants (KD) were determined using Biacore T200 Evaluation software with a “steady-state affinity analysis” after injection of five different concentrations of analytes.
(Surface plasmon resonance follows binding to a sensor surface in real time, without labels.)

In data set [2] the test system is HEMC-SS xenograft model. The experiment in a line: In vivo antitumor efficacy on HEMC-SS xenograft model. Set-up: species or system SCID mice. The following applies: for Antitumor effect (tumor volume vs controls): 6 i.v. injections at 4-day intervals, 8-QA and 8 47.0 μmol/kg, 10-QA 46.7 μmol/kg. Here is the method:
In vivo studies were carried out on 50 female Severe Combined ImmunoDeficiency (SCID) mice aged 4–5 weeks old (Janvier Labs). All animal studies were carried out in accordance with the directive 2010/63/EU after approval by the institutional review board (C2E2A, authorization #CE85-12).
To obtain in vivo tumors, 10^7 HEMC-SS cells in 100 μL of PBS were injected with 100 μL of Matrigel® (BD Biosiences) subcutaneously into the right flank of the mice.
The antitumor efficiency of 8-QA was first studied respectively to its non-QA equivalent (8) used as negative control for proteoglycan targeting. In a second independent study, we evaluated the antitumor activity of non-hypoxia activated derivative (10-QA) used as negative control of hypoxia activation, respectively to another control group. For both studies, at 21 days post-cell inoculation mice were randomized into three or two groups (10–12 animals per group). Treatment protocol consisted in 6 doses at 4-day intervals injected by i.v route: 8-QA (47.0 μmol/kg) and 10-QA (46.7 μmol/kg)were injected at 50% of Maximum Tolerated Dose (MTD) while non-targeted derivative 8 (47.0 μmol/kg) was injected at equimolar dose of 8-QA. All molecules were diluted in saline with 2% ethanol. Control animals received vehicle according to the same schedule.
Tumor volume (TV) was calculated using the following formula:
TV (mm^3) = [length x (width)^2]/2.
Tumor Growth Inhibition (TGI) was calculated as follows: TGI (%) = [1-(Tn/Cn)] × 100, where Tn is the tumor volume of the treated group at day n and Cn the tumor volume of the control group at day n.
Data are represented as means ± SD. For antitumor efficiency and mouse weight monitoring, statistical significance was determined using two-way ANOVA. For tumor weight, mitosis number and hematological analyses, statistical significance was determined using one-way ANOVA. Both tests were followed by Tukey's post-hoc multiple comparisons test. Results were considered significant at p < 0.05.

The test system of data set [3] is HEMC-SS chondrosarcoma cells (monolayer). The experiment in a line: In vitro proliferation assay (AlamarBlue), HEMC-SS monolayer culture. The class given is cell-based, human. The following applies: for IC50: Homo sapiens; for HCR (hypoxic-cytotoxic ratio) Monolayer: normoxia vs hypoxia IC50. Here is the method: Human HEMC-SS chondrosarcoma cell line was obtained from the European Collection of Authenticated Cell Cultures and cultured in DMEM/F12 medium (Life Technologies) supplemented with 10% fetal calf serum (Dutscher) and 4 μg/mL gentamicin.
(§1) After trypsinization, HEMC-SS cells were seeded in 96-well plates at a density of 20.10^3 cells in 150 μL of the corresponding culture medium and allowed to adhere overnight. For 3D cell culture, Day 10 spheroids were used. Increasing drug concentrations diluted in DMSO (maintaining final DMSO concentration at 0.5% (v/v)) were added. After plate incubations for 24 hours in normoxic (21% O2, 5% CO2, 37 °C) or hypoxic (N2, O2 < 0.3%, 37 °C) conditions, the culture media were removed and 2D and 3D cells were washed with PBS and left to grow for 48 hours in normoxic conditions. Viability of cells cultured in monolayer or spheroids was quantified by AlamarBlue assay. Cytotoxic activity was expressed as the drug concentration that inhibited cell growth by 50% (IC50). Experiments were performed in triplicates. Data are represented as means ± SD. Statistical significance was determined using one-way ANOVA followed by Tukey's post-hoc multiple comparisons test. Results were considered significant at p < 0.05.

The subject of data set [4] is HEMC-SS spheroids. Description: In vitro proliferation assay (AlamarBlue), HEMC-SS Day 10 spheroids. The class given is cell-based, human. The conditions noted are these: for IC50: Homo sapiens, 24 hours exposure then 48 hours in normoxia; for HCR (hypoxic-cytotoxic ratio) Spheroids: normoxia vs hypoxia IC50. How it is done:
To generate HEMC-SS spheroids, cells were harvested from culture flasks by trypsinization and seeded in 96-well non-adherent plates (Nunc) with 100 μL of 0.5% methylcellulose (Bio-Techne) diluted in the corresponding medium at a density of 1000 cells per well. Cultures were maintained in a 5% CO2 humidified environment at 37°C.
as §1
On the technique in general: Resazurin is reduced to fluorescent resorufin, in cell work by metabolically active cells.

[5] abbreviates: hypoxia (N2, O2 < 0.3%), 24 hours exposure then 48 hours in normoxia, read-out: IC50 Monolayer Hypoxia.
Where [6] appears, read: normoxia (21% O2), 24 hours exposure then 48 hours in normoxia, read-out: IC50 Monolayer Normoxia.
[7] abbreviates: hypoxia (N2, O2 < 0.3%), read-out: IC50 Spheroids Hypoxia.
The mark [8] stands for this setting: normoxia (21% O2), read-out: IC50 Spheroids Normoxia.

The term Kd denotes the equilibrium constant for the complex coming apart. In general, IC50 refers to the concentration at which inhibition is half-maximal. As to `Cn1c(COP(=O)(NCCC[N+](C)(C)C)N(CCCl)CCCl)cnc1[N+](=O)[O-]` (stereo not shown) [8-QA], in data set [1], the “Binding to aggrecan (sensorgrams)” value is on record as “dose-dependent binding” and the Kd was found to be 890 µM. For the same molecule, the “Tumor growth inhibition (TGI) at D41” value in data set [2] (47 μmol/kg i.v., q4d x 6, day after last injection (D41)) is on record as 62.1%. Moreover, the “Antitumor effect (tumor volume vs controls)” value in data set [2] is given as “significant antitumor effect”. Besides, the Tumor weight entry in data set [2] (one day after the last injection, normalized to control group) is recorded as “significant decrease”. Besides, the IC50 in data set [3] (setting [5]) was determined as 4.3 ± 1.2 µM. Further, in data set [3] (setting [6]), the IC50 worked out at 29.3 ± 8 µM. The “HCR (hypoxic-cytotoxic ratio) Monolayer” value in data set [3] worked out at 6.8. The IC50 in data set [4] (setting [7]) was determined as 31.8 ± 5.5 µM. In addition, the IC50 in data set [4] (setting [8]) is 101 ± 32.6 µM. In data set [4], the “S/M (spheroid/monolayer cytotoxic ratio) Hypoxia” value turned out to be 7.4, the “S/M (spheroid/monolayer cytotoxic ratio) Normoxia” value was 3.4 and the “HCR (hypoxic-cytotoxic ratio) Spheroids” value came out at 3.1.
`CCCNP(=O)(OCc1cnc([N+](=O)[O-])n1C)N(CCCl)CCCl` (stereo not shown) [compound 8]: the “Binding to aggrecan (sensorgrams)” value in data set [1] is recorded as “no affinity”. Moreover, the “Antitumor effect (tumor volume vs controls)” value in data set [2] was “no antitumor efficacy”. The IC50 in data set [3] (setting [5]) is 4.3 ± 1.2 µM; in data set [3] (setting [6]) it was 32.5 ± 4.3 µM; in data set [4] (setting [7]), 5.7 ± 1.2 µM; in data set [4] (setting [8]) it was 99.4 ± 5.2 µM. The “HCR (hypoxic-cytotoxic ratio) Monolayer” value in data set [3] is 7.5. For the same molecule, the “S/M (spheroid/monolayer cytotoxic ratio) Hypoxia” value in data set [4] amounted to 1.3. Besides, the “S/M (spheroid/monolayer cytotoxic ratio) Normoxia” value in data set [4] is 3.1. The “HCR (hypoxic-cytotoxic ratio) Spheroids” value in data set [4] is reported as 17.4.
In the case of `C[N+](C)(C)CCCNP(=O)(OCc1ccccc1)N(CCCl)CCCl` (stereo not shown) [10-QA], the “Binding to aggrecan (sensorgrams)” value in data set [1] is given as “dose-dependent binding”. Also, the Kd in data set [1] is 4100 µM. In data set [2], the “Antitumor effect (tumor volume vs controls)” value is on record as “no antitumor effect”. Moreover, the IC50 in data set [3] (read-out: IC50 (cytotoxicity in any of the experimental conditions)), in data set [3] (setting [5]), in data set [3] (setting [6]), in data set [4] (setting [7]) and in data set [4] (setting [8]) was more than 200 µM throughout.
